Literature values as cited in patent publication US6506938B1, “Process for the purifying of iopamidol” (Bracco International B.V., priority 1993, dated 2003).
Where two headings read alike, the source gives them in different places.

Legend:
[1] = British patent no. 1,472,050
[2] = Boll. Chim. Farm., 120, 639, (1981)

solubility in ethanol ([1]; ethanol, room temperature): about 10% | solubility in methanol ([1]; methanol): practically unlimited solubility | solubility in water ([1]; water): dissolves very easily | solubility in benzene ([2]; benzene): practically insoluble | solubility in chloroform ([2]; chloroform): practically insoluble | solubility in diethylether ([2]; diethylether): practically insoluble | solubility in ethanol ([2]; ethanol): practically insoluble | solubility in methanol ([2]; methanol): only slightly soluble | solubility in water ([2]; water): very soluble
Structure (SMILES): C[C@H](O)C(=O)Nc1c(I)c(C(=O)NC(CO)CO)c(I)c(C(=O)NC(CO)CO)c1I [Iopamidol, L-5-α-hydroxypropionylamino-2,4,6-triiodo-isophthalic acid bis-(1,3-dihydroxyisopropylamide)]
